In publication PMC7827406, “Structure–Activity Relationship (SAR) Study of Spautin-1 to Entail the Discovery of Novel NEK4 Inhibitors” (International Journal of Molecular Sciences, 2021):
Where two headings read alike, the source gives them in different places.

How the values were obtained:
Experiment in all cases: biochemical
Design in all cases: Eurofins KinaseProfiler full panel at Km ATP, residual kinase activity (%) relative to DMSO
[1] = biological target: T1, SGK(h) (Homo sapiens, UniProt O00141)
T1 construct: gene SGK1
T1 sequence (O00141 1-431): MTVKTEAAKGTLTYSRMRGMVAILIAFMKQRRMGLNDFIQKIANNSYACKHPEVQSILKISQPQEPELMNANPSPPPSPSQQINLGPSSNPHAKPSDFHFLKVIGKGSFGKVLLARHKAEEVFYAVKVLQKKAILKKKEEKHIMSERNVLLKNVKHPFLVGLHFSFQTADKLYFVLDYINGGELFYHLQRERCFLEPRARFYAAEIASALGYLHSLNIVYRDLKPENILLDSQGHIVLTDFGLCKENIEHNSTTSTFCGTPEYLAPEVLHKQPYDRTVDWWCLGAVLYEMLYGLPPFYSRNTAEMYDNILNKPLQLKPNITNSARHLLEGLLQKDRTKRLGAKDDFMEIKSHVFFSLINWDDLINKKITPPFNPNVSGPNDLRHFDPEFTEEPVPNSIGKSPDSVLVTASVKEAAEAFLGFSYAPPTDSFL
Procedure, shortened: (§1)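 Two 10 µM single-concentration screens were run: a competition-binding screen, in which DNA-tagged kinase bound to immobilized ligands was quantified by qPCR, and a radiometric activity panel at Km ATP. Each is expressed as residual kinase activity (%).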

[2] = biological target: T2, PKCα(h) (Homo sapiens, UniProt P17252)
T2 construct: gene PRKCA
Procedure, shortened: as §1

[3] = biological target: LRRK2(h) (Homo sapiens, UniProt Q5S007)
Procedure, shortened: as §1

[4] = biological target: T3, SAPK2b(h) (Homo sapiens, UniProt Q15759)
T3 construct: gene MAPK11
Procedure, shortened: as §1

[5] = biological target: T4, CaMKIIα(h) (Homo sapiens, UniProt Q9UQM7)
T4 construct: gene CAMK2A
Procedure, shortened: as §1

[6] = biological target: CLK2(h) (Homo sapiens, UniProt P49760)
Procedure, shortened: as §1

[7] = biological target: T5, MLK3(h) (Homo sapiens, UniProt Q16584)
T5 construct: gene MAP3K11
Procedure, shortened: as §1

[8] = biological target: T6, PI3 Kinase (p110a(H1047R)/p85a)(m) (Mus musculus, UniProt P42337, H1047R)
T6 construct: gene Pik3ca
Procedure, shortened: as §1

[9] = biological target: T7, PKD3(h) (Homo sapiens, UniProt O94806)
T7 construct: gene PRKD3
T7 sequence (O94806 1-890): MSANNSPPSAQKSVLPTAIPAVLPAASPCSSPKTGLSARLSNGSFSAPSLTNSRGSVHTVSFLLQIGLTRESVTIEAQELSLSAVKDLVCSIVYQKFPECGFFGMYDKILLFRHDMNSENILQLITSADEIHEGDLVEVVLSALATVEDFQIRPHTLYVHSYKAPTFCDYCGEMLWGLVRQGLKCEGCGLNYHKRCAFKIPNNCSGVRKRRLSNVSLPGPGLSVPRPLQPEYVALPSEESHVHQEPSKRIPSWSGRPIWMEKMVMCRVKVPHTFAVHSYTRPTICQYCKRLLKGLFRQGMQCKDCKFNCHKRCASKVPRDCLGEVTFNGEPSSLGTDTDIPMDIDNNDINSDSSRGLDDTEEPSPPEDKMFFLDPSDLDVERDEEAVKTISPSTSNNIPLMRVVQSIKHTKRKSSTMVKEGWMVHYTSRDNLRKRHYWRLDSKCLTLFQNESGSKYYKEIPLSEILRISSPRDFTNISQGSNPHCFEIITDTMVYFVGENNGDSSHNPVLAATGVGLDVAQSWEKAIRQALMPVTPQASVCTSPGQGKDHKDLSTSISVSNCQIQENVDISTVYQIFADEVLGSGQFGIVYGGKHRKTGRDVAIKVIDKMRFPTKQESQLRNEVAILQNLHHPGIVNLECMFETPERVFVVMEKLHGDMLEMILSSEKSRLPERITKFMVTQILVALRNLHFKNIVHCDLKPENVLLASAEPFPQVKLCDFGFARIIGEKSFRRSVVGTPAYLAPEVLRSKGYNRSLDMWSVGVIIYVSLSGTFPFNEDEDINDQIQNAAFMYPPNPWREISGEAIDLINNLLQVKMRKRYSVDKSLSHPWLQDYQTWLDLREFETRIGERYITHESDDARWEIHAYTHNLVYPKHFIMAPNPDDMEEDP
Procedure, shortened: as §1

[10] = read-out: Residual activity (%) 5ay
[11] = read-out: Residual activity (%) Spautin-1 5aa
[12] = read-out: Residual activity (%) 5at
[13] = read-out: Residual activity (%) 5as

Chain of LRRK2(h) (Q5S007 whole entry): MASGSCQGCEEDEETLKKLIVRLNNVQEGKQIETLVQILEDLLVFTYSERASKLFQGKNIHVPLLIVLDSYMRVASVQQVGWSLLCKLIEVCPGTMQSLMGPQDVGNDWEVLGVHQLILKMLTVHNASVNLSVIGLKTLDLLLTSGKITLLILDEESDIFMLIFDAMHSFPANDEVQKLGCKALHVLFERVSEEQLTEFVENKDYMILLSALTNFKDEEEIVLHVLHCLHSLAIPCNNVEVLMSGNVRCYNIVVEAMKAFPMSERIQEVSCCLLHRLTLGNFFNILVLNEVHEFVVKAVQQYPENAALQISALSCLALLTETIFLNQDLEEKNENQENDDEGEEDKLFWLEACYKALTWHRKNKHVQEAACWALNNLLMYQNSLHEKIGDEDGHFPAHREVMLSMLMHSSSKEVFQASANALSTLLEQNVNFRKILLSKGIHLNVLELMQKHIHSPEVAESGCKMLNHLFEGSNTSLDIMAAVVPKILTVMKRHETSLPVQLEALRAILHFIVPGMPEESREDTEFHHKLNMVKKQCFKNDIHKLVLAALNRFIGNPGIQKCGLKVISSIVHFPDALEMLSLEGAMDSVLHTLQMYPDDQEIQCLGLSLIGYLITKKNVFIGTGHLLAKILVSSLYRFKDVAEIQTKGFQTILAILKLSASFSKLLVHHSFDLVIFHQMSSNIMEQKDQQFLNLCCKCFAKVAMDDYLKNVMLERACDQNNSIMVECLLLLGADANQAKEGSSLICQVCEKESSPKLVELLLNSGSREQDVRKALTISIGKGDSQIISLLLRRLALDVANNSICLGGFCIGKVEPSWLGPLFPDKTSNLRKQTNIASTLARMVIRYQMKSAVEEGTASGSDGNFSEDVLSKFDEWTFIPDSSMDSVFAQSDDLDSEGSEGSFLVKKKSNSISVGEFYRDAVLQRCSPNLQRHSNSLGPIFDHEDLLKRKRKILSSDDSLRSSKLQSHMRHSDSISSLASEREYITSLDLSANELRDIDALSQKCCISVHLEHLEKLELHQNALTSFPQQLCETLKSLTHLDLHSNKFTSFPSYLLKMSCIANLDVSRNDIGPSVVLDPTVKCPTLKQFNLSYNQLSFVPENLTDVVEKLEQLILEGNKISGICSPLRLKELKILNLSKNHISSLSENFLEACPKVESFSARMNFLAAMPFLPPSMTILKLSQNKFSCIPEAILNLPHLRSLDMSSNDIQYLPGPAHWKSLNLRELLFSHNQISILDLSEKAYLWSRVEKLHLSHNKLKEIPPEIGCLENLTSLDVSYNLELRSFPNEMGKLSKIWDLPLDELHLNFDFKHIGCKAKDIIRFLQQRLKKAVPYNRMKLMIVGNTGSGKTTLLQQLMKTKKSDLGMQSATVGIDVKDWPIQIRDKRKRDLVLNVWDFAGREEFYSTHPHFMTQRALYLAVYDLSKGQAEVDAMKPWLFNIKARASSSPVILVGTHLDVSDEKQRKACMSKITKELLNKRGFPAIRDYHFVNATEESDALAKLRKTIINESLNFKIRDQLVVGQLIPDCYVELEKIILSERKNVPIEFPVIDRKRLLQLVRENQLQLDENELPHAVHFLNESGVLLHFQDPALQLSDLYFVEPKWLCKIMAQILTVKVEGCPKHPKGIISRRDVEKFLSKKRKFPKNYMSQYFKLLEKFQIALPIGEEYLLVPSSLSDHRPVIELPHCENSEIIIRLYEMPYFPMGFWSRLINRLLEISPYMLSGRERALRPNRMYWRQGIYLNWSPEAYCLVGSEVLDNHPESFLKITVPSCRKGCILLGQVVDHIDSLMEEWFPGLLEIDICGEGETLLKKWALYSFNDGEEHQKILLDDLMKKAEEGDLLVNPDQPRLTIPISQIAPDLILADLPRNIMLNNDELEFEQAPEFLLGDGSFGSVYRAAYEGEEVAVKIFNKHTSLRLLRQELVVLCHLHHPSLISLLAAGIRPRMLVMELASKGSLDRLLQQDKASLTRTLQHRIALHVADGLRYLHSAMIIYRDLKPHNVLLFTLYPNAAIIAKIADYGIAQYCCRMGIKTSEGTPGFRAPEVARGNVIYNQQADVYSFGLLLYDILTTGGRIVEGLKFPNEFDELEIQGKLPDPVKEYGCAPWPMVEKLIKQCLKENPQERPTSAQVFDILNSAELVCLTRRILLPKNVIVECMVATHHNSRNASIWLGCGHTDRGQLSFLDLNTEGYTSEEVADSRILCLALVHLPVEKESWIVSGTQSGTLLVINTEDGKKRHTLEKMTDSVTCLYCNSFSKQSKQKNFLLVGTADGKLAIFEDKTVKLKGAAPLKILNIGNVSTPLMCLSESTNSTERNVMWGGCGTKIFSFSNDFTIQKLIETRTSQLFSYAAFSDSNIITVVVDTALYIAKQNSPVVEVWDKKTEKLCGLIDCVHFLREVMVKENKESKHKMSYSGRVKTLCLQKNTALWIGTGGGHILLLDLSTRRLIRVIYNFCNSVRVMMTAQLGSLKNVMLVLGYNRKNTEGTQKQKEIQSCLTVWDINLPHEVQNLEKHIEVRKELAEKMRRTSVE
T6 sequence (P42337 whole entry H1047R): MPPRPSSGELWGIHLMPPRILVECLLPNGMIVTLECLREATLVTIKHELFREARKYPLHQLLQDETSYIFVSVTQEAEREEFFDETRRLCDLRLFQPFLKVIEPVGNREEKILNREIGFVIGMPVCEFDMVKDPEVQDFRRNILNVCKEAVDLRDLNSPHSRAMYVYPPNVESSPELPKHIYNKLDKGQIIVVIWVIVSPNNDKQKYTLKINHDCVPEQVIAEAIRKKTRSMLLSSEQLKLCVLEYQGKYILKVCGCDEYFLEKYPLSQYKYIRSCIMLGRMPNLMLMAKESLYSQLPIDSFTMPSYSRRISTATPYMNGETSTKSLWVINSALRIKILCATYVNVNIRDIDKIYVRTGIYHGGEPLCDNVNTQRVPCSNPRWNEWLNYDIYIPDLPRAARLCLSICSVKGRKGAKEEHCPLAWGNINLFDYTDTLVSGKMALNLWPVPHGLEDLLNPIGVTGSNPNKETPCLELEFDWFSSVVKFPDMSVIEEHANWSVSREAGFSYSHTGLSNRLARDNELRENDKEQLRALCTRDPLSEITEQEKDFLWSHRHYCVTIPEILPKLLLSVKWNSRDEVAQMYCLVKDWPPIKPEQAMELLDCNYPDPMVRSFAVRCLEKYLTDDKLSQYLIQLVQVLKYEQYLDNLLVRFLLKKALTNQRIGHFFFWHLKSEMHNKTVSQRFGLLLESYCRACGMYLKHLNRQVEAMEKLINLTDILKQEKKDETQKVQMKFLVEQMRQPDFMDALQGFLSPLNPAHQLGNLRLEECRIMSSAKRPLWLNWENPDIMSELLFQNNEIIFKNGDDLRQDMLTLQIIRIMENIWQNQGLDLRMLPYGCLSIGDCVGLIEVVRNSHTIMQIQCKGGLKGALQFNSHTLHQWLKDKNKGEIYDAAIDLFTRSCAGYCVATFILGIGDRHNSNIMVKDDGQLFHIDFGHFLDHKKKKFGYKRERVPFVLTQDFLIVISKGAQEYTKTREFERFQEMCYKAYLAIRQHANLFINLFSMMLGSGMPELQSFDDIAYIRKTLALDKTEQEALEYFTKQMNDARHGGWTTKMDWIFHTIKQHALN
T6 sequence (P26450 whole entry partner): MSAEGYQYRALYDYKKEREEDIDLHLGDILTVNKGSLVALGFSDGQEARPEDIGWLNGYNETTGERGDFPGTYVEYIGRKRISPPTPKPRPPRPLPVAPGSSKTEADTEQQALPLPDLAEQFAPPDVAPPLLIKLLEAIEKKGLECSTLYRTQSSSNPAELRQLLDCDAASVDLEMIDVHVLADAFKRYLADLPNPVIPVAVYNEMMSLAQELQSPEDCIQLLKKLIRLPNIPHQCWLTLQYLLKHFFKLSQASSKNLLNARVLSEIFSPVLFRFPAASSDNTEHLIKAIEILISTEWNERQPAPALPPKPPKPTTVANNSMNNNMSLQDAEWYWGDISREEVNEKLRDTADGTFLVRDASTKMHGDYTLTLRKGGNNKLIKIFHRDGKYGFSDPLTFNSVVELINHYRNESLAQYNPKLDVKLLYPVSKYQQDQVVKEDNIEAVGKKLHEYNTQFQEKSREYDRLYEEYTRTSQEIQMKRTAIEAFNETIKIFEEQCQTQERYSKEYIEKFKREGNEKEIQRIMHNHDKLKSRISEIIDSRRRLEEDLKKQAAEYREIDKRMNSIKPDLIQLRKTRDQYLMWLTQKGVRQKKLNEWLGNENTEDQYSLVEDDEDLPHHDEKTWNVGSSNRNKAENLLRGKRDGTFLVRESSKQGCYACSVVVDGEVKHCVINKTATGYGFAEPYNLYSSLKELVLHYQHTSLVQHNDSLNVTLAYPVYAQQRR

## COc1ccc2ncnc(Nc3cccc(F)c3)c2c1 [5ay, N-(3-Fluorophenyl)-6-Methoxy-4-Quinazolinamine]
[1]; [10]
  remaining activity at 10 µM: 82%
[2]; [10]
  remaining activity at 10 µM: 86%
[3]; [10]
  remaining activity at 10 µM: 44%
[4]; [10]
  remaining activity at 10 µM: 83%
[5]; [10]
  remaining activity at 10 µM: 58%
[6]; [10]
  remaining activity at 10 µM: 43%
[7]; [10]
  remaining activity at 10 µM: 97%
[8]; [10]
  remaining activity at 10 µM: 93%
[9]; [10]
  remaining activity at 10 µM: 91%

## Fc1ccc(CNc2ncnc3ccc(F)cc23)cc1 [5aa, 6-Fluoro-N-(4-fluorobenzyl)-4-Quinazolinamine]
[1]; [11]
  remaining activity at 10 µM: 82%
[2]; [11]
  remaining activity at 10 µM: 89%
[3]; [11]
  remaining activity at 10 µM: 91%
[4]; [11]
  remaining activity at 10 µM: 79%
[5]; [11]
  remaining activity at 10 µM: 94%
[6]; [11]
  remaining activity at 10 µM: 47%
[7]; [11]
  remaining activity at 10 µM: 99%
[8]; [11]
  remaining activity at 10 µM: 96%
[9]; [11]
  remaining activity at 10 µM: 100%

## Fc1ccc2ncnc(NCCc3ccc(Cl)cc3)c2c1 [5at, N-[2-(4-Chlorophenyl)Ethyl]-6-Fluoro-4-Quinazolinamine]
[1]; [12]
  remaining activity at 10 µM: 92%
[2]; [12]
  remaining activity at 10 µM: 79%
[3]; [12]
  remaining activity at 10 µM: 101%
[4]; [12]
  remaining activity at 10 µM: 84%
[5]; [12]
  remaining activity at 10 µM: 89%
[6]; [12]
  remaining activity at 10 µM: 60%
[7]; [12]
  remaining activity at 10 µM: 114%
[8]; [12]
  remaining activity at 10 µM: 94%
[9]; [12]
  remaining activity at 10 µM: 102%

## Fc1ccc(CCNc2ncnc3ccc(F)cc23)cc1 [5as, 6-Fluoro-N-[2-(4-Fluorophenyl)Ethyl]-4-Quinazolinamine]
[1]; [13]
  remaining activity at 10 µM: 86%
[2]; [13]
  remaining activity at 10 µM: 94%
[3]; [13]
  remaining activity at 10 µM: 91%
[4]; [13]
  remaining activity at 10 µM: 95%
[5]; [13]
  remaining activity at 10 µM: 88%
[6]; [13]
  remaining activity at 10 µM: 53%
[7]; [13]
  remaining activity at 10 µM: 99%
[8]; [13]
  remaining activity at 10 µM: 95%
[9]; [13]
  remaining activity at 10 µM: 114%
